# From patent US20250339517A1, “LIPID N[…]” (priority 2022, published 2025)
# System: F9A6-CD4 T cell hybridoma overlaid on M. tuberculosis-infected macrophages
# Assay: Ex vivo MTB Ag85B antigen presentation to CD4 T cells (IL-2 ELISA)
# Type: cell-based, human
# Settings: concurrent activation; decrease for MO-TDM compared to TDM and MO
# Method: Briefly, M. tuberculosis-infected MΦs were washed after a 4-hour infection and overlaid with the F9A6-CD4 T cell hybridoma which recognizes an Ag85B epitope in the context of human HLA-DR1. IL-2 secreted from hybridoma T cells or other cytokines secreted from M. tuberculosis-infected MΦs were determined using a sandwich ELISA kit (Biolegend).
# By inhibiting the phagosome lysosome fusion in macrophages, TDM not only protects the M. tuberculosis bacilli from intracellular killing but also reduces the priming of T cells due to reduced processing of Mycobacterial antigens in lysosomal compartments. Since increased killing of intracellular MTB in macrophages was observed when they were stimulated with a cubosomal MO-TDM (1 mol %) preparation, it indicated a possible increase in lysosmal processing of its antigens. […] An in vitro antigen presentation assay using a CD4 hybridoma T cell that recognizes a specific epitope of Ag85B was adopted to determine the priming of T cells by macrophages that were stimulated with MO, TDM and MO-TDM (1 mol %). Secreted levels of IL-2 by hybridoma T cells upon overlay to M. tuberculosis infected macrophages with and without stimulation with MO, TDM and MO-TDM (1 mol %) were monitored in a time dependent manner (FIG. 9).
substance,measurement,value
"trehalose 6,6′ dimycolate [TDM]","antigen presentation to T cells (secreted IL-2 levels), change from day 3 to day 5 post infection",decreased sharply
